Key:
[1] = test system: Bacteroides thetaiotaomicron; assay: MIC anaerobic bacteria, agar-dilution; format: cell-based; details: Bacteroides thetaiotaomicron 1438
Bacteroides fragilis = assay: MIC anaerobic bacteria, agar-dilution; format: cell-based
[2] = test system: Streptococcus sp. Group D; assay: MIC aerobic bacteria, standard agar-dilution assay; format: cell-based
Haemophilus influenzae = assay: MIC aerobic bacteria, standard agar-dilution assay; format: cell-based
[3] = Electrometric titration (pKa); format: physicochemical; details: electrometric titration in 66% dimethylformamide in water; for possibly additional pKa's: stated as possible
Description: Antibiotic A41030 factor A is a white, crystalline solid.

Solubility in solvents = format: physicochemical; details: qualitative
Description: As many as seven antibiotic factors are recovered from the fermentation and are obtained as a mixture, the A41030 complex. It will be recognized that the ratio of the factors in the A41030 complex will vary, depending upon the fermentation conditions used. The individual factors A, B, C, D, E, F, and G are separated and isolated as individual compounds, as hereinafter described.

[4] = test system: Staphylococcus epidermidis; assay: MIC aerobic bacteria, standard agar-dilution assay; format: cell-based
Peptococcus prevoti = assay: MIC anaerobic bacteria, agar-dilution; format: cell-based; details: Peptococcus prevoti 1281
S. pyogenes = assay: In vivo oral activity against S. pyogenes in mice
[5] = test system: Peptostreptococcus anaerobius; assay: MIC anaerobic bacteria, agar-dilution; format: cell-based; details: Peptostreptococcus anaerobius 1428
Clostridium septicum = assay: MIC anaerobic bacteria, agar-dilution; format: cell-based; details: Clostridium septicum 1128
Streptococcus pneumoniae = assay: MIC aerobic bacteria, standard agar-dilution assay; format: cell-based; details: Streptococcus pneumoniae Park I, 24 hours
Bacteroides corrodens = assay: MIC anaerobic bacteria, agar-dilution; format: cell-based; details: Bacteroides corrodens 1874
Clostridium difficile [6] = assay: MIC against Clostridium difficile strains, agar-dilution; format: cell-based
Description: The A41030 antibiotic factors A, B, C, D, E, F, and G, are also active against a number of strains of Clostridium difficile, as determined by the agardilution method.

Streptococcus pyogenes = assay: MIC aerobic bacteria, standard agar-dilution assay; format: cell-based; details: Streptococcus pyogenes C203, 24 hours
[7] = test system: Fusobacterium necrophorum; assay: MIC anaerobic bacteria, agar-dilution; format: cell-based; details: Fusobacterium necrophorum 6054A
Propionibacterium acnes [8] = assay: MIC anaerobic bacteria, agar-dilution; format: cell-based; details: Propionibacterium acnes 79; agar-dilution (Table 9)
Propionibacterium acnes [9] = assay: MIC against Propionibacterium acnes strains, 24-hour agar-dilution; format: cell-based
Description: Antibiotic A41030 factors A, B and C have been tested and found to be active against a genus of anaerobic bacteria identified as Propionibacterium acnes.

Clostridium perfringens = format: cell-based; details: Clostridium perfringens 81; agar-dilution
[10] = test system: Bacteroides melaninogenicus; assay: MIC anaerobic bacteria, agar-dilution; format: cell-based
Clostridium difficile [11] = assay: MIC anaerobic bacteria, agar-dilution; format: cell-based; details: Clostridium difficile 2994; agar-dilution (Table 9)
Fusobacterium symbiosum = assay: MIC anaerobic bacteria, agar-dilution; format: cell-based; details: Fusobacterium symbiosum 1470
Bacteroides vulgatis = assay: MIC anaerobic bacteria, agar-dilution; format: cell-based; details: Bacteroides vulgatis 1211
[12] = test system: Peptococcus asaccharolyticus; assay: MIC anaerobic bacteria, agar-dilution; format: cell-based; details: Peptococcus asaccharolyticus 1302
Eubacterium aerofaciens = assay: MIC anaerobic bacteria, agar-dilution; format: cell-based; details: Eubacterium aerofaciens 1235
Escherichia coli = assay: MIC aerobic bacteria, standard agar-dilution assay; format: cell-based; details: Escherichia coli TEM, 24 hours
Staphylococcus aureus = assay: MIC aerobic bacteria, standard agar-dilution assay; format: cell-based; details: Staphylococcus aureus S13E; agar-dilution, 24 hours
[13] = test system: Peptostreptococcus intermedius; assay: MIC anaerobic bacteria, agar-dilution; format: cell-based; details: Peptostreptococcus intermedius 1264
[14] = Streptococcus sp. Group D 9960, 24 hours
[15] = Streptococcus sp. Group D X66, 24 hours
[16] = Staphylococcus epidermidis EPI1, 24 hours
[17] = Bacteroides melaninogenicus 2736

Substance: A41030 factor C
- MIC [1]: 64 µg/mL
- MIC (Bacteroides fragilis; Bacteroides fragilis 1877): 16 µg/mL
- MIC (Bacteroides fragilis; Bacteroides fragilis 1936B): 32 µg/mL
- MIC [2, 14]: 4 µg/mL
- MIC [2, 15]: 2 µg/mL
- MIC (Haemophilus influenzae; Haemophilus influenzae 251, 24 hours): 4 µg/mL
- MIC (Haemophilus influenzae; Haemophilus influenzae Brun, 24 hours): 16 µg/mL
- pKa, second titratable group [3]: ~7.1
- possibly additional pKa's [3]: > 10
- solubility (solvents) (Solubility in solvents): soluble in the same solvents as factor A
- MIC [4, 16]: 0.5 µg/mL
- MIC (Peptococcus prevoti): ≤ 0.25 µg/mL
- in vivo oral activity (S. pyogenes): > 300 mg./kg.×2
- MIC [5]: ≤ 0.25 µg/mL
- MIC (Clostridium septicum): 8 µg/mL
- MIC (Streptococcus pneumoniae): 1 µg/mL
- MIC (Bacteroides corrodens): 32 µg/mL
- MIC (Clostridium difficile [6]; Clostridium difficile 78): 1.0 µg/mL
- MIC (Clostridium difficile [6]; Clostridium difficile 107B): 1.0 µg/mL
- MIC (Clostridium difficile [6]; Clostridium difficile 111F): 2 µg/mL
- MIC (Clostridium difficile [6]; Clostridium difficile 1153): 2 µg/mL
- MIC (Clostridium difficile [6]; Clostridium difficile 2634): 2 µg/mL
- MIC (Clostridium difficile [6]; Clostridium difficile 3424-5B): 1.0 µg/mL
- MIC (Clostridium difficile [6]; Clostridium difficile 3816): 2 µg/mL
- MIC (Clostridium difficile [6]; Clostridium difficile 3950D): 2 µg/mL
- MIC (Clostridium difficile [6]; Clostridium difficile 6890): 2 µg/mL
- MIC (Clostridium difficile [6]; Clostridium difficile 8484): 1.0 µg/mL
- MIC (Clostridium difficile [6]; Clostridium difficile A-194): 2 µg/mL
- MIC (Clostridium difficile [6]; Clostridium difficile A-195): 1.0 µg/mL
- MIC (Clostridium difficile [6]; Clostridium difficile A-196): 2 µg/mL
- MIC (Clostridium difficile [6]; Clostridium difficile A-279): 2 µg/mL
- MIC (Clostridium difficile [6]; Clostridium difficile A-280): 1.0 µg/mL
- MIC (Clostridium difficile [6]; Clostridium difficile A-281): 2 µg/mL
- MIC (Clostridium difficile [6]; Clostridium difficile WAL-2112): 2 µg/mL
- MIC (Clostridium difficile [6]; Clostridium difficile WAL-3657): 2 µg/mL
- MIC (Clostridium difficile [6]; Clostridium difficile WAL-4268): 1.0 µg/mL
- MIC (Streptococcus pyogenes): 1 µg/mL
- MIC [7]: 16 µg/mL
- MIC (Propionibacterium acnes [8]): ≤ 0.25 µg/mL
- MIC (Propionibacterium acnes [9]; P. acnes strain 104): 0.25 µg/mL
- MIC (Propionibacterium acnes [9]; P. acnes strain 5170): ≤ 0.03 µg/mL
- MIC (Propionibacterium acnes [9]; P. acnes strain 5176): ≤ 0.03 µg/mL
- MIC (Propionibacterium acnes [9]; P. acnes strain 5187): 0.06 µg/mL
- MIC (Propionibacterium acnes [9]; P. acnes strain 5197): ≤ 0.03 µg/mL
- MIC (Propionibacterium acnes [9]; P. acnes strain 5227): 0.06 µg/mL
- MIC (Propionibacterium acnes [9]; P. acnes strain 5228): 1.0 µg/mL
- MIC (Propionibacterium acnes [9]; P. acnes strain 5229): 0.5 µg/mL
- MIC (Propionibacterium acnes [9]; P. acnes strain 5246): 0.06 µg/mL
- MIC (Propionibacterium acnes [9]; P. acnes strain 5292): 0.06 µg/mL
- MIC (Clostridium perfringens): 1.0 µg/mL
- MIC [10, 17]: 4 µg/mL
- MIC (Clostridium difficile [11]): 16 µg/mL
- MIC (Fusobacterium symbiosum): 1.0 µg/mL
- MIC (Bacteroides vulgatis): 32 µg/mL
- MIC [12]: ≤ 0.25 µg/mL

Substance: A41030 factor D
- MIC [1]: 32 µg/mL
- MIC (Bacteroides fragilis; Bacteroides fragilis 111): 32 µg/mL
- MIC (Bacteroides fragilis; Bacteroides fragilis 1877): 32 µg/mL
- MIC (Bacteroides fragilis; Bacteroides fragilis 1936B): 32 µg/mL
- MIC [2, 14]: 1 µg/mL
- MIC [2, 15]: 1 µg/mL
- MIC (Haemophilus influenzae; Haemophilus influenzae 76, 24 hours): 8 µg/mL
- MIC (Haemophilus influenzae; Haemophilus influenzae C.L., 24 hours): 8 µg/mL
- possibly additional pKa's [3]: > 10
- solubility (solvents) (Solubility in solvents): soluble in the same solvents as factor A
- MIC [4, 16]: 0.25 µg/mL
- MIC ([4]; Staphylococcus epidermidis EPI2, 24 hours): 1 µg/mL
- MIC (Peptococcus prevoti): 0.25 µg/mL
- MIC [5]: 0.5 µg/mL
- MIC (Clostridium septicum): 0.25 µg/mL
- MIC (Streptococcus pneumoniae): 0.5 µg/mL
- MIC (Eubacterium aerofaciens): 0.5 µg/mL
- MIC (Escherichia coli): 64 µg/mL
- MIC (Bacteroides corrodens): 32 µg/mL
- MIC (Staphylococcus aureus): 0.25 µg/mL
- MIC (Clostridium difficile [6]; Clostridium difficile 78): ≤ 0.25 µg/mL
- MIC (Clostridium difficile [6]; Clostridium difficile 107B): ≤ 0.25 µg/mL
- MIC (Clostridium difficile [6]; Clostridium difficile 111F): ≤ 0.25 µg/mL
- MIC (Clostridium difficile [6]; Clostridium difficile 1153): 1.0 µg/mL
- MIC (Clostridium difficile [6]; Clostridium difficile 2634): 0.5 µg/mL
- MIC (Clostridium difficile [6]; Clostridium difficile 3424-5B): 0.5 µg/mL
- MIC (Clostridium difficile [6]; Clostridium difficile 3816): 0.5 µg/mL
- MIC (Clostridium difficile [6]; Clostridium difficile 3950D): 0.5 µg/mL
- MIC (Clostridium difficile [6]; Clostridium difficile 6890): 0.5 µg/mL
- MIC (Clostridium difficile [6]; Clostridium difficile 8484): ≤ 0.25 µg/mL
- MIC (Clostridium difficile [6]; Clostridium difficile A-194): ≤ 0.25 µg/mL
- MIC (Clostridium difficile [6]; Clostridium difficile A-195): ≤ 0.25 µg/mL
- MIC (Clostridium difficile [6]; Clostridium difficile A-196): 0.5 µg/mL
- MIC (Clostridium difficile [6]; Clostridium difficile A-279): ≤ 0.25 µg/mL
- MIC (Clostridium difficile [6]; Clostridium difficile A-280): ≤ 0.25 µg/mL
- MIC (Clostridium difficile [6]; Clostridium difficile A-281): 0.5 µg/mL
- MIC (Clostridium difficile [6]; Clostridium difficile WAL-2112): ≤ 0.25 µg/mL
- MIC (Clostridium difficile [6]; Clostridium difficile WAL-3657): ≤ 0.25 µg/mL
- MIC (Clostridium difficile [6]; Clostridium difficile WAL-4268): ≤ 0.25 µg/mL
- MIC (Streptococcus pyogenes): 0.5 µg/mL
- MIC [13]: 1.0 µg/mL
- MIC (Propionibacterium acnes [8]): 0.25 µg/mL
- MIC (Clostridium perfringens): 0.5 µg/mL
- MIC ([10]; Bacteroides melaninogenicus 1856/28): > 64 µg/mL
- MIC [10, 17]: 0.5 µg/mL
- MIC (Clostridium difficile [11]): 0.5 µg/mL
- MIC (Fusobacterium symbiosum): 0.5 µg/mL
- MIC (Bacteroides vulgatis): 32 µg/mL

— US4695545A, “Culture and process for producing A41030 antibiotics” (Eli Lilly and Company, priority 1984, dated 1987)
